From patent publication US11266609B2, “Bacitracin and/or daptomycin combined with cannabidiol for treatment of bacterial infections” (priority 2017, dated 2022)
pIC50: −log10 of the molar value. Converted amounts (≈) assume the structure as drawn.

Assays:
MRSA USA300 FPR3757 = test: microbe, parasite or virus in culture; type: cell-based, Staphylococcus aureus; conditions: for FIC Index: WT USA300, combination of cannabidiol with the respective antibiotic, synergy <= 0.5, no interaction 0.5-4.0, antagonism > 4
Procedure: (§1) The resistant bacterium MRSA USA300 FPR3757 (USA300) was the main used bacterium throughout this study. MRSA was grown in Brain Heart Infusion (BHI) or Müeller Hinton (MH) media on plate or in liquid cultures with agitation at 37° C.
An ON culture was made by inoculating a bacterial colony in either 5 mL of MH or BHI and incubating at 37° C. with agitation. The antibiotic of interest was added to a row of a sterile 96-well plate (VWR) and a serial dilution was made down the rows containing 50 μL of MH or BHI media in each well, resulting in 2-fold dilution for each row. The ON culture was diluted to OD625 at approximately 1.0 followed by a 1:100 dilution to approximately OD625=0.01 of which 50 μL was added to each well to a final volume of 100 μL. The 96-well plate was incubated at 37° C. with shaking at 225 rpm for approximately 18-24 hours. Presence and absence of growth were determined by visual appearance.
B) The other screen was based on fractional inhibitory concentration (FIC) index.

MRSA USA300 = test: Micro dilution growth experiments using oCelloScope, CBD combined with antibiotics (FIG. 1); type: cell-based, Staphylococcus aureus; conditions: for synergistic potential in growth curves: combination with CBD 1-2 μg/mL, bacitracin 16, daptomycin 4, tetracycline 16, fosfomycin 16, dicloxacillin 0.0625, chlorhexidine 0.25, vancomycin 0.5 μg/mL (FIG. 1)
Procedure: BCA: Background corrected absorption. ? Growth control, ? CBD, -▴- Antibiotic, ? Combination.
as §1
An ON culture was made by inoculating a bacterial colony in either 5 mL of MH or BHI at incubated at 37° C. with agitation. 25 μL of specific concentrations of the antibiotic and cannabinoid to be tested was added to the desired wells of a sterile 96-well plate (Thermo Scientific). 25 μL of MH or BHI media was added to the wells only containing one of the two compounds tested. The bacterial ON culture was diluted to a final OD600 nm of 0.005 and 50 μL was dispensed into each well to a final volume of 100 μL. To decrease evaporation, 2 mL of pre-heated water was added to the corners of the 96-well plate containing cavities. The plate was placed in the oCelloScope inside an incubator at 37° C. Illumination level and focus was adjusted for each well and the growth was measured for approximately 25 hours. Measurements were performed every half an hour for the first half of the time and every hour for the last half using the UniExplorer software. Data retrieved was given in Background corrected absorption (BCA), formerly known as pixel histogram summation (PHS), an algorithm enabling determination of bacterial growth kinetics resulting from images taken with the oCelloScope camera.
A) A screen was performed using the Philips oCelloScope enabling measurements of bacterial growth in presence or absence of either cannabidiol alone or in combination with an antibiotic or antimicrobial, through a 3D scanning system in 96-well plates.

[1] = target: T1, bacterial undecaprenyl pyrophosphate (UPP) synthase (Staphylococcus aureus, UniProt P60477); conditions: The Journal of Antibiotics 69, 798-805 (2016); cited from earlier work
T1 sequence (P60477 1-256): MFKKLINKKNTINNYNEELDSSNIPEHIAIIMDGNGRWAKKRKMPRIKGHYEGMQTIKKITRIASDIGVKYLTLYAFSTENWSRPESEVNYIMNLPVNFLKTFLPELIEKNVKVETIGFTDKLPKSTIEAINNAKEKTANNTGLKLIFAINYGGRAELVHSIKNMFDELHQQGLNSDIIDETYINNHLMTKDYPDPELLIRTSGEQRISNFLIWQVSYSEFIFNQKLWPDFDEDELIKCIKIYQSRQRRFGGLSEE

[2] = test system: Gram-positive bacteria including methicillin-resistant Staphylococcus aureus (MRSA); conditions: particularly against Gram-positive bacteria including MRSA; cited from earlier work

**Q.** For `CCCCCCCCCC(=O)N[C@@H](Cc1c[nH]c2ccccc12)C(=O)N[C@H](CC(N)=O)C(=O)N[C@@H](CC(=O)O)C(=O)N[C@@H]1C(=O)NCC(=O)N[C@@H](CCCN)C(=O)N[C@@H](CC(=O)O)C(=O)N[C@H](C)C(=O)N[C@@H](CC(=O)O)C(=O)NCC(=O)N[C@H](CO)C(=O)N[C@@H]([C@H](C)CC(=O)O)C(=O)N[C@@H](CC(=O)c2ccccc2N)C(=O)O[C@@H]1C` [Daptomycin], which MIC (MRSA USA300 FPR3757; USA300) is on record?
**A.** The MIC was 16 µg/mL (≈ 9.87 µM).

**Q.** And the “synergistic potential in growth curves” value (MRSA USA300)?
**A.** Its value is “to some degree”.

**Q.** Which MIC (MRSA USA300 FPR3757; Staphylococcus aureus) does the source give for `Cc1onc(-c2c(Cl)cccc2Cl)c1C(=O)N[C@@H]1C(=O)N2[C@@H]1SC(C)(C)[C@@H]2C(=O)O` [Dicloxacillin] here?
**A.** Its MIC is 0.25 µg/mL (≈ 0.532 µM).

**Q.** And the “FIC Index” value (MRSA USA300 FPR3757)?
**A.** Its value is 2.

**Q.** What about the “synergistic potential in growth curves” value (MRSA USA300) of the same molecule?
**A.** Its value is “no synergistic potential”.

**Q.** For `C[C@@H]1O[C@@H]1P(=O)(O)O` [Fosfomycin], which MIC (MRSA USA300 FPR3757; Staphylococcus aureus) is on record?
**A.** The MIC was 32 µg/mL (≈ 232 µM).

**Q.** What about the “synergistic/antagonistic potential in growth curves, lower concentration” value (MRSA USA300; combination with CBD 1 μg/mL, fosfomycin 8 μg/mL (FIG. 1E)) of the same molecule?
**A.** Its value is “antagonistic potential”.

**Q.** And the “synergistic potential in growth curves” value (MRSA USA300)?
**A.** The value was “to some degree”.

**Q.** With `COc1cc(O)c2c(O)c3c(c4c2c1C1(C4)C(C)=CCCC1(C)C)C(O)C1(O)CC(=O)C(C(C)=O)=C(O)C1(O)C3=O` (stereo not drawn) [Spirohexaline] as the molecule, how does the pIC50 [1] read?
**A.** Its pIC50 is 5.05.

**Q.** And the antimicrobial activity [2]?
**A.** Its antimicrobial activity is “showed antimicrobial activity”.

**Q.** What does the source list for `CN[C@H](CC(C)C)C(=O)N[C@H]1C(=O)N[C@@H](CC(N)=O)C(=O)N[C@H]2C(=O)N[C@H]3C(=O)N[C@H](C(=O)N[C@H](C(=O)O)c4cc(O)cc(O)c4-c4cc3ccc4O)[C@H](O)c3ccc(c(Cl)c3)Oc3cc2cc(c3O[C@@H]2O[C@H](CO)[C@@H](O)[C@H](O)[C@H]2O[C@H]2C[C@](C)(N)[C@H](O)[C@H](C)O2)Oc2ccc(cc2Cl)[C@H]1O` [Vancomycin]?
**A.** MIC (MRSA USA300 FPR3757; Staphylococcus aureus): 2 µg/mL (≈ 1.38 µM); FIC Index (MRSA USA300 FPR3757): 2; synergistic potential in growth curves (MRSA USA300): no synergistic potential

**Q.** With Viridicatumtoxin as the molecule, how does the pIC50 [1] read?
**A.** The pIC50 was 5.40.

**Q.** And the antimicrobial activity [2]?
**A.** Its antimicrobial activity is “showed antimicrobial activity”.
